Experimental data as given in patent EP4186500A1, “MEK INHIBITORS FOR THE PREVENTION AND TREATMENT OF LONG COVID SYNDROME” (Atriva Therapeutics GmbH, priority 2021, dated 2023).
Where two headings read alike, the source gives them in different places.

Assays:
[1] = test system: SARS-CoV-2 SA variant B.1351; type: cell-based, Severe acute respiratory syndrome coronavirus; conditions: MOI 0.1, 1 and 10, 50, 75 and 100µM, 24 hours
SARS-CoV-2 (FI) = type: cell-based, Severe acute respiratory syndrome coronavirus; conditions: ATR-002 100 µM

Structure (SMILES): O=C(O)c1ccc(F)c(F)c1Nc1ccc(I)cc1Cl [ATR-002, 2-(2-chloro-4-iodophenylamino)-N-3,4-difluoro benzoic acid]
- virus yield ([1]; Calu-3 cells): reduction of virus yield
- virus yield ([1]; Vero cells): reduction of virus yield
- production of progeny viral particles (SARS-CoV-2 (FI); A549-ACE2/TMPRSS2 cells, MOI of 0.001): reduced the production of progeny viral particles
- production of progeny viral particles (SARS-CoV-2 (FI); A549-ACE2/TMPRSS2 cells, MOI: 0.01): did not affect the production of progeny viral particles
- production of progeny viral particles (SARS-CoV-2 (FI); Calu-3 cells, MOI of 0.001): reduced the production of progeny viral particles
